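Results reflect a 48-hour exposure of cells in 96-well plates to compound at five concentrations. TGI denotes the concentration required for complete inhibition of growth.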
Experiments:
Assay in all cases: growth of human tumour cells (NCI), 48 h
[1] = system: NCI-H23 lung
[2] = system: OVCAR-3 ovarian
[3] = system: PC-3 prostate
[4] = system: LOX IMVI melanoma
[5] = system: NCI-H460 lung
[6] = system: HCT-116 colon
[7] = system: OVCAR-8 ovarian
[8] = system: HOP-92 NSCLC
[9] = system: K-562 leukemia
[10] = system: M14 melanoma
[11] = system: NCI-H226 lung
[12] = system: TK-10 renal
[13] = system: SF-295 CNS
[14] = system: IGROV1 ovarian
[15] = system: HS 578T breast
[16] = system: DU-145 prostate
[17] = system: UO-31 renal
[18] = system: CCRF-CEM leukemia
[19] = system: OVCAR-5 ovarian
[20] = system: UACC-62 melanoma
[21] = system: RPMI-8226 leukemia
[22] = system: KM12 colon
[23] = system: ACHN renal
[24] = system: A549 NSCLC
[25] = system: MALME-3M melanoma
[26] = system: MDA-MB-231 breast
[27] = system: HCC-2998 colon
[28] = system: NCI/ADR-RES ovarian
[29] = system: T-47D breast
[30] = system: SW-620 colon
[31] = system: CAKI-1 renal
[32] = system: SN12C renal
[33] = system: SK-MEL-2 melanoma
[34] = system: COLO 205 colon
[35] = system: UACC-257 melanoma
[36] = system: MDA-MB-435
[37] = system: U251 CNS
[38] = system: HL-60(TB) leukemia
[39] = system: OVCAR-4 ovarian
[40] = system: 786-0 renal
[41] = system: SNB-75 CNS
[42] = system: HT29 colon
[43] = system: BT-549 breast
[44] = system: SK-OV-3 ovarian
[45] = system: SF-539 CNS
[46] = system: NCI-H522 lung
[47] = system: SK-MEL-28 melanoma
[48] = system: EKVX NSCLC
[49] = system: SF-268 CNS
[50] = system: MCF7 breast
[51] = system: HCT-15 colon
[52] = system: A498 renal
[53] = system: SNB-19 CNS
[54] = system: MOLT-4 leukemia
[55] = system: SK-MEL-5 melanoma

Measured: TGI

O=C1C[C@@H](c2ccc(O)cc2)[C@@]2(O1)C(=O)O[C@H]([C@@H](O)CO)[C@@H]2O
> 100 µM: [1] | [2] | [3] | [4] | [5] | [6] | [7] | [8] | [9] | [10] | [11] | [12] | [13] | [14] | [15] | [16] | [17] | [18] | [19] | [20] | [21] | [22] | [23] | [24] | [25] | [26] | [27] | [28] | [29] | [30] | [31] | [32] | [33] | [34] | [35] | [36] | [37] | [38] | [39] | [40] | [41] | [42] | [43] | [44] | [45] | [46] | [47] | [48] | [49] | [50] | [51] | [52] | [53] | [54] | [55]
